{"source": "the supplement of paper PMC10627819", "key": {"[1]": {"test_system": "S. aureus Newman", "assay": "fitness (endpoint OD595 vs no drug) (fraction); higher = more growth", "how_it_was_run": "(§1)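 Each well of a 384-well plate received 30 µl of culture at OD595 0.01, or 55 µl for S. pneumoniae. TSB, LB Lennox or CY served as media at 37 °C. OD595 was taken every 30 min for 14 h and corrected by subtracting the first reading. Fitness is the optical density at stationary-phase entry divided by the robust mean of no-drug controls, capped at 1.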"}, "[2]": {"test_system": "S. pneumoniae D39V", "assay": "fitness (endpoint OD595 vs no drug) (fraction); higher = more growth", "how_it_was_run": "as §1"}, "[3]": {"test_system": "B. subtilis 168", "assay": "fitness (endpoint OD595 vs no drug) (fraction); higher = more growth", "how_it_was_run": "as §1"}, "[4]": {"test_system": "S. aureus DSM 20231", "assay": "Bliss interaction score (quartile over a dose matrix) (fitness difference); higher = more antagonism (negative = synergy)", "how_it_was_run": "(§2)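 Quartiles summarise the Bliss score over technical, biological and donor/recipient replicates, where the score is observed minus expected fitness under a product model. Expected fitness uses single-drug values inferred from combination data. Fitness is OD595 at entry into stationary phase over the plate's robust no-drug mean, capped at 1.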"}, "[5]": {"test_system": "S. aureus Newman", "assay": "Bliss interaction score (quartile over a dose matrix) (fitness difference); higher = more antagonism (negative = synergy)", "how_it_was_run": "as §2"}, "[6]": {"test_system": "S. pneumoniae D39V", "assay": "Bliss interaction score (quartile over a dose matrix) (fitness difference); higher = more antagonism (negative = synergy)", "how_it_was_run": "as §2"}, "[7]": {"test_system": "B. subtilis 168", "assay": "Bliss interaction score (quartile over a dose matrix) (fitness difference); higher = more antagonism (negative = synergy)", "how_it_was_run": "as §2"}, "[8]": {"conditions": "first compound 0.25 µg/mL, partner 1.25 µg/mL"}, "[9]": {"conditions": "first compound 0.25 µg/mL, partner 2.5 µg/mL"}, "[10]": {"conditions": "first compound 0.25 µg/mL, partner 5 µg/mL"}, "[11]": {"conditions": "first compound 0.5 µg/mL, partner 1.25 µg/mL"}, "[12]": {"conditions": "first compound 0.5 µg/mL, partner 2.5 µg/mL"}, "[13]": {"conditions": "first compound 0.5 µg/mL, partner 5 µg/mL"}, "[14]": {"conditions": "first compound 1 µg/mL, partner 1.25 µg/mL"}, "[15]": {"conditions": "first compound 1 µg/mL, partner 2.5 µg/mL"}, "[16]": {"conditions": "first compound 0.125 µg/mL, partner 1.25 µg/mL"}, "[17]": {"conditions": "first compound 0.125 µg/mL, partner 2.5 µg/mL"}, "[18]": {"conditions": "first compound 0.25 µg/mL, partner 0.625 µg/mL"}, "[19]": {"conditions": "first compound 0.5 µg/mL, partner 0.625 µg/mL"}}}
{"compound": "CC1=C(C(=O)O)N2C(=O)[C@@H](NC(=O)[C@H](N)c3ccccc3)[C@H]2SC1", "note": "[Cephalexin] + C[n+]1ccc(-c2cc[n+](C)cc2)cc1 [Paraquat]", "values": [{"measurement": "fitness", "setting": "[1]; [8]", "value": 0.986}, {"measurement": "fitness", "setting": "[1]; [9]", "value": 0.996}, {"measurement": "fitness", "setting": "[1]; [10]", "value": 0.982}, {"measurement": "fitness", "setting": "[1]; [11]", "value": 0.874}, {"measurement": "fitness", "setting": "[1]; [12]", "value": "≥ 1"}, {"measurement": "fitness", "setting": "[1]; [13]", "value": 0.963}, {"measurement": "fitness", "setting": "[1]; [14]", "value": 0.874}, {"measurement": "fitness", "setting": "[1]; [15]", "value": 0.918}, {"measurement": "fitness", "setting": "[1]; first compound 1 µg/mL, partner 5 µg/mL", "value": "≥ 1"}, {"measurement": "fitness", "setting": "[2]; first compound 0.125 µg/mL, partner 1.5 µg/mL, one replicate", "value": 0.999}, {"measurement": "fitness", "setting": "[2]; first compound 0.125 µg/mL, partner 3 µg/mL, one replicate", "value": 0.909}, {"measurement": "fitness", "setting": "[2]; first compound 0.125 µg/mL, partner 6 µg/mL, one replicate", "value": 0.896}, {"measurement": "fitness", "setting": "[2]; first compound 0.25 µg/mL, partner 1.5 µg/mL, one replicate", "value": 0.982}, {"measurement": "fitness", "setting": "[2]; first compound 0.25 µg/mL, partner 3 µg/mL, one replicate", "value": 0.913}, {"measurement": "fitness", "setting": "[2]; first compound 0.25 µg/mL, partner 6 µg/mL, one replicate", "value": 0.897}, {"measurement": "fitness", "setting": "[2]; first compound 0.5 µg/mL, partner 1.5 µg/mL, one replicate", "value": 0.998}, {"measurement": "fitness", "setting": "[2]; first compound 0.5 µg/mL, partner 3 µg/mL, one replicate", "value": 0.928}, {"measurement": "fitness", "setting": "[2]; first compound 0.5 µg/mL, partner 6 µg/mL, one replicate", "value": 0.9}, {"measurement": "fitness", "setting": "[2]; first compound 1 µg/mL, partner 1.5 µg/mL, one replicate", "value": 0.828}, {"measurement": "fitness", "setting": "[2]; first compound 1 µg/mL, partner 3 µg/mL, one replicate", "value": 0.865}, {"measurement": "fitness", "setting": "[2]; first compound 1 µg/mL, partner 6 µg/mL, one replicate", "value": 0.861}, {"measurement": "fitness", "setting": "[2]; first compound 2 µg/mL, partner 1.5 µg/mL, one replicate", "value": 0.21}, {"measurement": "fitness", "setting": "[2]; first compound 2 µg/mL, partner 3 µg/mL, one replicate", "value": 0.286}, {"measurement": "fitness", "setting": "[2]; first compound 2 µg/mL, partner 6 µg/mL, one replicate", "value": 0.328}, {"measurement": "fitness", "setting": "[2]; first compound 4 µg/mL, partner 1.5 µg/mL, one replicate", "value": 0.0243}, {"measurement": "fitness", "setting": "[2]; first compound 4 µg/mL, partner 3 µg/mL, one replicate", "value": 0.0238}, {"measurement": "fitness", "setting": "[2]; first compound 4 µg/mL, partner 6 µg/mL, one replicate", "value": 0.0875}, {"measurement": "fitness", "setting": "[3]; [16]", "value": 0.908}, {"measurement": "fitness", "setting": "[3]; [17]", "value": 0.937}, {"measurement": "fitness", "setting": "[3]; first compound 0.125 µg/mL, partner 5 µg/mL", "value": 0.815}, {"measurement": "fitness", "setting": "[3]; [8]", "value": 0.892}, {"measurement": "fitness", "setting": "[3]; [9]", "value": 0.912}, {"measurement": "fitness", "setting": "[3]; [10]", "value": 0.795}, {"measurement": "fitness", "setting": "[3]; [11]", "value": 0.924}, {"measurement": "fitness", "setting": "[3]; [12]", "value": 0.902}, {"measurement": "fitness", "setting": "[3]; [13]", "value": 0.851}, {"measurement": "Bliss interaction score", "setting": "[4]", "value": 0.0584}, {"measurement": "Bliss interaction score", "setting": "[5]", "value": 0.0521}, {"measurement": "Bliss interaction score", "setting": "[6]", "value": 0.135}, {"measurement": "Bliss interaction score", "setting": "[7]", "value": 0.0473}]}
{"compound": "CC1=C(C(=O)O)N2C(=O)[C@@H](NC(=O)[C@H](N)c3ccccc3)[C@H]2SC1", "note": "[Cephalexin] + Cc1ncc([N+](=O)[O-])n1CCO [Metronidazole]", "values": [{"measurement": "fitness", "setting": "[1]; [18]", "value": 0.962}, {"measurement": "fitness", "setting": "[1]; first compound 0.25 µg/mL, partner 0.781 µg/mL, one replicate", "value": 0.989}, {"measurement": "fitness", "setting": "[1]; [8]", "value": "≥ 1"}, {"measurement": "fitness", "setting": "[1]; first compound 0.25 µg/mL, partner 1.562 µg/mL, one replicate", "value": "≥ 1"}, {"measurement": "fitness", "setting": "[1]; [9]", "value": "≥ 1"}, {"measurement": "fitness", "setting": "[1]; first compound 0.25 µg/mL, partner 3.124 µg/mL, one replicate", "value": 0.998}, {"measurement": "fitness", "setting": "[1]; [19]", "value": 0.994}, {"measurement": "fitness", "setting": "[1]; first compound 0.5 µg/mL, partner 0.781 µg/mL, one replicate", "value": "≥ 1"}, {"measurement": "fitness", "setting": "[1]; [11]", "value": 0.984}, {"measurement": "fitness", "setting": "[1]; first compound 0.5 µg/mL, partner 1.562 µg/mL, one replicate", "value": "≥ 1"}, {"measurement": "fitness", "setting": "[1]; [12]", "value": "≥ 1"}, {"measurement": "fitness", "setting": "[1]; first compound 0.5 µg/mL, partner 3.124 µg/mL, one replicate", "value": "≥ 1"}, {"measurement": "fitness", "setting": "[1]; first compound 1 µg/mL, partner 0.625 µg/mL", "value": "≥ 1"}, {"measurement": "fitness", "setting": "[1]; first compound 1 µg/mL, partner 0.781 µg/mL, one replicate", "value": "≥ 1"}, {"measurement": "fitness", "setting": "[1]; [14]", "value": "≥ 1"}, {"measurement": "fitness", "setting": "[1]; first compound 1 µg/mL, partner 1.562 µg/mL, one replicate", "value": "≥ 1"}, {"measurement": "fitness", "setting": "[1]; [15]", "value": "≥ 1"}, {"measurement": "fitness", "setting": "[1]; first compound 1 µg/mL, partner 3.124 µg/mL, one replicate", "value": "≥ 1"}, {"measurement": "fitness", "setting": "[2]; first compound 0.125 µg/mL, partner 1.25 µg/mL, one replicate", "value": "≥ 1"}, {"measurement": "fitness", "setting": "[2]; first compound 0.125 µg/mL, partner 2.5 µg/mL, one replicate", "value": "≥ 1"}, {"measurement": "fitness", "setting": "[2]; first compound 0.125 µg/mL, partner 5 µg/mL, one replicate", "value": 0.971}, {"measurement": "fitness", "setting": "[2]; first compound 0.25 µg/mL, partner 1.25 µg/mL, one replicate", "value": 0.989}, {"measurement": "fitness", "setting": "[2]; first compound 0.25 µg/mL, partner 2.5 µg/mL, one replicate", "value": "≥ 1"}, {"measurement": "fitness", "setting": "[2]; first compound 0.25 µg/mL, partner 5 µg/mL, one replicate", "value": "≥ 1"}, {"measurement": "fitness", "setting": "[2]; first compound 0.5 µg/mL, partner 1.25 µg/mL, one replicate", "value": "≥ 1"}, {"measurement": "fitness", "setting": "[2]; first compound 0.5 µg/mL, partner 2.5 µg/mL, one replicate", "value": "≥ 1"}, {"measurement": "fitness", "setting": "[2]; first compound 0.5 µg/mL, partner 5 µg/mL, one replicate", "value": "≥ 1"}, {"measurement": "fitness", "setting": "[2]; first compound 4 µg/mL, partner 1.073 µg/mL", "value": 0.0041}, {"measurement": "fitness", "setting": "[2]; first compound 4 µg/mL, partner 2.145 µg/mL", "value": 0.0332}, {"measurement": "fitness", "setting": "[2]; first compound 4 µg/mL, partner 4.29 µg/mL", "value": 0.0078}, {"measurement": "fitness", "setting": "[3]; first compound 0.125 µg/mL, partner 0.625 µg/mL", "value": 0.958}, {"measurement": "fitness", "setting": "[3]; [16]", "value": 0.936}, {"measurement": "fitness", "setting": "[3]; [17]", "value": 0.963}, {"measurement": "fitness", "setting": "[3]; [18]", "value": 0.94}, {"measurement": "fitness", "setting": "[3]; [8]", "value": 0.91}, {"measurement": "fitness", "setting": "[3]; [9]", "value": 0.86}, {"measurement": "fitness", "setting": "[3]; [19]", "value": 0.943}, {"measurement": "fitness", "setting": "[3]; [11]", "value": 0.932}, {"measurement": "fitness", "setting": "[3]; [12]", "value": 0.926}, {"measurement": "Bliss interaction score", "setting": "[4]", "value": 0.0322}, {"measurement": "Bliss interaction score", "setting": "[5]", "value": 0.0215}, {"measurement": "Bliss interaction score", "setting": "[6]", "value": 0.132}, {"measurement": "Bliss interaction score", "setting": "[7]", "value": -0.0395}]}
